Where two headings read alike, the source gives them in different places. No end group written: not given here.
Experiments:
γ-PAK [1] = experiment: Kinetic parameters (Km, Vmax) for phosphorylation of synthetic peptides by γ-PAK; type: biochemical, rabbit
Description: (§1) Assays with peptides (I mM) were carried out with γ-PAK (1.6-5.6 units) in 25 μL reaction mixtures incubated for 30 min at 30° C. under conditions described above, except that 0.4 mg/mL of bovine serum albumin was added and the specific activity of ATP was 300-2000 cpm/pmol. Reactions were terminated with 5 μL of 100 mM ATP, and the amount of ^32p incorporated was quantitated by precipitation of 20 μL aliquots on P81 phosphocellulose paper with 75 mM H3PO4 as described previously [Bensen, E. S., et al., Biochim. Biophys. Acta, 1292:249-258 (1996)]. Peptides containing only one basic amino acid were analyzed by thin-layer electrophoresis on cellulose sheets for 2 h at 600 V with pyridine/acetic acid/water (10:100:890), pH 3.5, as solvent, as described previously [Bensen, E. S., et al., supra]. Activation of γ-PAK by autophosphorylation in the presence of Cdc42(GTPγS) was performed as previously described [Jakobi, R., et al., supra]. γ-PAK was also activated by limited digestion with trypsin as described previously [Rooney, R. D., et al., (1996), supra].

γ-PAK [2] = experiment: Rates of phosphorylation of synthetic peptides by γ-PAK; type: biochemical, rabbit; settings: for 32P incorporated, %: AKRASAA taken as 100%; for substrate for γ-PAK (in words): synthetic peptides; for rate of phosphorylation compared to AKRASAA: relative to AKRASAA; for rate of phosphorylation compared to ARRASVA: other studies, ARRASVA = 100%
Source text: (§2) A. Materials. γ-PAK was purified from rabbit reticulocytes to apparent homogeneity by chromatography on DEAE-cellulose, SP-Sepharose, protamine agarose, and FPLC on Mono S and Mono Q. Histone I (type IIIS), mixed histone (type IIAS), trypsin (L-1-tosylamido-2-phenylethyl chloromethyl ketone treated), soybean trypsin inhibitor, bovine serum albumin (fatty acid free), and myelin basic protein were purchased from Sigma. Purified histones 2B and 4 were purchased from Boehringer-Mannheim. Myosin light chain from rabbit skeletal muscle was a gift from Dr. James Stull, University of Texas Southwestern Medical Center, Dallas, Tex.; rat prolactin was provided by Dr. Ameae Walker, University of California, Riverside, Calif.; and the purified catalytic subunit of cAMP-dependent protein kinase from bovine heart was a gift from Dr. William H. Fletcher, J. L. Pettis Memorial V. A. Hospital, Loma Linda, Calif. Protein kinase C was purified from bovine brain according to the procedure of Walton et al. [Walton, G. M., et al., Anal Biochem., 161:425-437 (1987)], with modifications [Venema, R. C., et al., J. Biol. Chem., 266:5298-5302 (1991)]. The clone for GST-Cdc42 was generously provided by Dr. Channing Der, University of North Carolina, Chapel Hill, N.C. Cellulose thin-layer chromatography sheets were from Kodak.
D. Phosphorylation Assays. Phosphorylation of protein substrates was carried out in 35 μL reaction mixtures containing 20 mM Tris-HCl, pH 7.4, 10 mM MgCl2, 30 mM 2-mercaptoethanol, 0.2 mM ATP (specific activity =1000 cpm/pmol), 2 μg of protein substrate, and 20 units of active γ-PAK (an enzyme unit is defined as the amount of enzyme that incorporates 1 pmol of phosphate into histone IIAS/ min at 30°. Under these conditions, phosphate incorporation was linear and initial rates of phosphorylation were measured. After incubation at 30° C. for 15 min, reactions were terminated by the addition of 5 μL of 100 mM nonlabeled ATP and sample buffer for gel electrophoresis [Hathaway, G. M., et al., Methods Enzymol., 60:495-511 (1979)]. Reaction mixtures were subjected to SDS-PAGE on 15% polyacrylamide gels followed by autoradiography. Phosphorylation was quantified by excising the protein band and counting the incorporated ^32P in a liquid scintillation counter. The specific activity of γ-PAK was 400 pmol min^−1 μg^−1 as reported previously using 0.2 mM ATP and 1 mg/mL mixed histone as substrate [Rooney, R. D., et al., (1996), supra].
as §1
Target sequence in this assay (Q29502 249-500 limits assumed): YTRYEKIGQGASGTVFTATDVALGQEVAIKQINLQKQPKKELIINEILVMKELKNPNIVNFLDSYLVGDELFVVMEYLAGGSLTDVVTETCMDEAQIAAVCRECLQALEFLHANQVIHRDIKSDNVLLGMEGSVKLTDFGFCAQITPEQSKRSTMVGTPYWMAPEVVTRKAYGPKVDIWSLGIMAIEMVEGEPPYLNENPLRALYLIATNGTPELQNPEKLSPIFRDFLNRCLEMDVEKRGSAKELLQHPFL

PKC = experiment: Rates of phosphorylation of synthetic peptides by PKC; type: biochemical, bovine; settings: for 32P incorporated: PKC (3.4 units), with Ca2+ and phospholipids, 0.14 mM ATP; for 32P incorporated, %: PKC, AKRASAA taken as 100%
Source text: as §2
Reactions with PKA (10.5 units) were carried out under the same conditions as with γ-PAK except that 0.14 mM ATP was used. Reactions with PKC (3.4 units) were performed as with PKA, with the addition of 0.4 mM CaCl2, phosphatidylinositol (15 μg/mL), phosphatidylserine (15 μg/ mL), and 1,2-diolein (3 μg/mL), as described [Tuazon, P. T., et al., (1989), supra]. A unit of PKA or PKC is defined as the amount of enzyme that incorporates 1 pmol of phosphate/min at 30° C. into histone IIAS or histone 1, respectively.
PKA and PKC are known to require basic amino acids on the N-terminal side of the phosphorylatable serine/ threonine. To distinguish their substrate specificities from that of γ-PAK, the relative rates of phosphorylation were determined with the synthetic peptide substrates using the conditions for γ-PAK, with the addition of Ca^2+ and phospholipids for PKC. The rates shown in Table 5 are calculated with equivalent units of enzyme; the rate of phosphorylation of the peptide AKRASAA (SEQ ID NO:6) is taken as 100% for all three enzymes. As would be expected, PKA preferentially phosphorylated the peptides that contained RR or RK at the −3 and −2 positions and with […] residues or proline at the −4 and −1 positions inhibitory. PKC recognized SKR>RKS>KKS. The most notable difference between γ-PAK and PKA or PKC is the effect of acidic residues on the susceptibility of the peptide to be phosphorylated. An acidic residue in the −1 or −4 position was beneficial for γ-PAK but was detrimental for both PKA and PKC (Table 5). […] In addition, γ-PAK could not tolerate an arginine in the −3 position when lysine was in the −2 position.

[3] = Cdc42(GTPγS)-activated γ-PAK, peptide 1 mM, KKRKSAA = 100
[4] = proteolytically (trypsin) activated γ-PAK, peptide 1 mM, compared to KKRKSAA = 100
[5] = proteolytically activated γ-PAK (5.6 units), peptide 1 mM, 30 min at 30° C.
[6] = γ-PAK, calculated with equivalent units of enzyme
[7] = Table 2, influence of basic amino acids, γ-PAK 1.6 units, ATP 0.2 mM
[8] = Table 2, influence of basic amino acids, γ-PAK 1.6 units, ATP 0.2 mM, read-out: Km
[9] = Table 4, influence of proline and glycine
[10] = Table 4, influence of proline and glycine, read-out: Km

Row | Molecule | rel rate (%) (γ-PAK [2]; [3]) | rel rate (%) (γ-PAK [2]; [4]) | 32P incorporated (γ-PAK [2]; [5]) [pmol/min/µg] | substrate for γ-PAK (in words) (γ-PAK [2]) | Km (γ-PAK [1]; [8]) [µM] | further results
1 | Nc1ncnc2c1ncn2[C@@H]1O[C@H](COP(=O)(O)OP(=O)(O)OP(=O)(O)O)[C@@H](O)[C@H]1O [ATP, reference compound] |  |  |  |  |  | Km (γ-PAK [1]; at concentrations of 1-3 mM peptide, read-out: Km for ATP): 65 to 80 µM
2 | AAAASKR (AAAASKR-NH2) [synthetic peptide with an amide C-terminal group] | 0 | 0 | 0 |  |  | 32P incorporated, % (γ-PAK [2]; γ-PAK): 0%; 32P incorporated (γ-PAK [2]; [6]): 0 pmol/unit; 32P incorporated (PKC): 13.3 pmol/unit; 32P incorporated, % (PKC): 403%
3 | AAKKSAA (AAKKSAA-NH2) [synthetic peptide with an amide C-terminal group] | 0 | 0 | 0 | poor substrates |  | 
4 | AAKRSAA (AAKRSAA-NH2) [synthetic peptide with an amide C-terminal group] | 0 | 0 | 0 | poor substrates |  | 
5 | AARASAA (AARASAA-NH2) [synthetic peptide with an amide C-terminal group] | 56 | 56 | 169 | reacted to a small but significant extent | 1880 | rate of phosphorylation compared to AKRASAA (γ-PAK [2]; γ-PAK): 40%; Vmax (γ-PAK [1]; [7]): 2.27 pmol/min
6 | AKRASGA (AKRASGA-NH2) [synthetic peptide with an amide C-terminal group] |  | 107 | 324 |  |  | increase of Km compared to AKRASAA (γ-PAK [1]): 4 fold; increase of Vmax compared to AKRASAA (γ-PAK [1]): 3 fold; overall rate of phosphorylation (Vmax/Km) compared to AKRASAA (γ-PAK [1]): slight overall decrease; Vmax (γ-PAK [1]; [9]): 3.49 pmol/min; Km (γ-PAK [1]; [10]): 2090 µM
7 | AKRASPA (AKRASPA-NH2) [synthetic peptide with an amide C-terminal group] | 3 | 0 | 0 | virtually abolished phosphorylation |  | Km (γ-PAK [1]; [10]): > 5000 µM
8 | AKRGSAA (AKRGSAA-NH2) [synthetic peptide with an amide C-terminal group] |  | 126 | 381 |  |  | increase of Km compared to AKRASAA (γ-PAK [1]): 7 fold; increase of Vmax compared to AKRASAA (γ-PAK [1]): 6 fold; overall rate of phosphorylation (Vmax/Km) compared to AKRASAA (γ-PAK [1]): slight overall decrease; Vmax (γ-PAK [1]; [9]): 6.44 pmol/min; Km (γ-PAK [1]; [10]): 3520 µM
9 | AKRKSAA (AKRKSAA-NH2) [synthetic peptide with an amide C-terminal group] | 158 | 181 | 548 |  | 480 | Vmax (γ-PAK [1]; [7]): 2.34 pmol/min
10 | AKRPSAA (AKRPSAA-NH2) [synthetic peptide with an amide C-terminal group] | 11 | 6 | 16 | virtually abolished phosphorylation |  | 32P incorporated, % (γ-PAK [2]; γ-PAK): 5%; 32P incorporated (γ-PAK [2]; [6]): 1.2 pmol/unit; 32P incorporated (PKC): 3.9 pmol/unit; 32P incorporated, % (PKC): 118%; Km (γ-PAK [1]; [10]): > 5000 µM
11 | ARAASVA [synthetic peptide] |  |  |  | reacted to a small but significant extent |  | rate of phosphorylation compared to ARRASVA (γ-PAK [2]; γ-PAK): 40%; rate of phosphorylation compared to AKRASAA (γ-PAK [2]; γ-PAK): 40%
12 | ARKASAA (ARKASAA-NH2) [synthetic peptide with an amide C-terminal group] | 9 | 6 | 16 | poor substrates | > 5000 | 32P incorporated, % (γ-PAK [2]; γ-PAK): 3%; 32P incorporated (γ-PAK [2]; [6]): 0.9 pmol/unit; 32P incorporated (PKC): 5.7 pmol/unit; 32P incorporated, % (PKC): 173%
13 | ARRASAA (ARRASAA-NH2) [synthetic peptide with an amide C-terminal group] | 134 | 129 | 391 | as good a substrate as AKRASAA | 650 | 32P incorporated, % (γ-PAK [2]; γ-PAK): 93%; 32P incorporated (γ-PAK [2]; [6]): 25.0 pmol/unit; 32P incorporated (PKC): 18.8 pmol/unit; 32P incorporated, % (PKC): 570%; Vmax (γ-PAK [1]; [7]): 2.11 pmol/min
14 | ARRASVA [synthetic peptide] |  |  |  |  |  | rate of phosphorylation compared to ARRASVA (γ-PAK [2]; γ-PAK): 100%
15 | KKAASAA (KKAASAA-NH2) [synthetic peptide with an amide C-terminal group] | 3 | 0 | 0 | did not |  | 
16 | KKRASAA (KKRASAA-NH2) [synthetic peptide with an amide C-terminal group] | 181 | 193 | 586 |  | 370 | Vmax (γ-PAK [1]; [7]): 1.59 pmol/min
17 | KKRKSAA [model peptide patterned after the phosphorylation site of nucleocapsid protein NC] | 100 | 100 | 302 |  | 610 | 32P incorporated, % (γ-PAK [2]; γ-PAK): 72%; 32P incorporated (γ-PAK [2]; [6]): 19.2 pmol/unit; 32P incorporated (PKC): 11.1 pmol/unit; 32P incorporated, % (PKC): 370%; Vmax (γ-PAK [1]; [7]): 1.84 pmol/min; Vmax (γ-PAK [1]; text b67, b73): 302 pmol/min/µg
